Results from patent US9963445B2, “Chemical compounds” (SYNGENTA PARTICIPATIONS AG, priority 2013, dated 2018).

What was measured:
Assay type in all cases: in vivo
Setaria faberi [1] = experiment: Post-emergence herbicidal activity, glasshouse pot test; design: key: 0 = no damage to plant, 5 = total damage to plant; details: Application post-emergence, rate 1000 g/ha, evaluated after 13 days
Method in brief: (§1)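 After 8 days of glasshouse growth at 24/16 °C day/night, potted plants receive a foliar spray of the formulated compound (0.5% Tween 20 in acetone/water). They are then watered twice daily under unchanged conditions, and phytotoxicity is scored 0–5 after 13 days.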

Amaranthus retroflexus [2] = experiment: as above; design: key: 0 = no damage to plant, 5 = total damage to plant; details: Application post-emergence, rate 1000 g/ha, evaluated after 13 days
Method in brief: as §1

Abutilon theophrasti [3] = experiment: as above; design: key: 0 = no damage to plant, 5 = total damage to plant; details: Application post-emergence, rate 1000 g/ha, evaluated after 13 days
Method in brief: as §1

zea mays [4] = experiment: as above; design: key: 0 = no damage to plant, 5 = total damage to plant; details: Application post-emergence, rate 1000 g/ha, evaluated after 13 days
Method in brief: as §1

Alopecurus myosuroides [5] = experiment: as above; design: key: 0 = no damage to plant, 5 = total damage to plant; details: Application post-emergence, rate 1000 g/ha, evaluated after 13 days
Method in brief: as §1

Echinochloa crus-galli [6] = experiment: as above; design: key: 0 = no damage to plant, 5 = total damage to plant; details: Application post-emergence, rate 1000 g/ha, evaluated after 13 days
Method in brief: as §1

Setaria faberi [7] = experiment: Pre-emergence herbicidal activity, glasshouse pot test; details: pre-emergence spray, rate 1000 g/ha, evaluated after 13 days, scale 0-5
Method in brief: (§2)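 Seeds sown in standard soil were sprayed one day after sowing, before emergence, with compound formulated in acetone/water (50:50) plus 0.5% Tween 20. Plants were grown at 24/16 °C day/night, 14 h light, 65% humidity, watered twice daily, and damage was scored after 13 days (0 = none, 5 = total).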

Amaranthus retroflexus [8] = experiment: as above; details: pre-emergence spray, rate 1000 g/ha, evaluated after 13 days, scale 0-5
Method in brief: as §2

Abutilon theophrasti [9] = experiment: as above; details: pre-emergence spray, rate 1000 g/ha, evaluated after 13 days, scale 0-5
Method in brief: as §2

zea mays [10] = experiment: as above; details: pre-emergence spray, rate 1000 g/ha, evaluated after 13 days, scale 0-5
Method in brief: as §2

Alopecurus myosuroides [11] = experiment: as above; details: pre-emergence spray, rate 1000 g/ha, evaluated after 13 days, scale 0-5
Method in brief: as §2

Echinochloa crus-galli [12] = experiment: as above; details: pre-emergence spray, rate 1000 g/ha, evaluated after 13 days, scale 0-5
Method in brief: as §2

Row | SMILES | SETFA herbicidal damage score (Setaria faberi [1]) | AMARE herbicidal damage score (Amaranthus retroflexus [2]) | ABUTH herbicidal damage score (Abutilon theophrasti [3]) | ZEAMX herbicidal damage score (zea mays [4]) | ALOMY herbicidal damage score (Alopecurus myosuroides [5]) | ECHCG herbicidal damage score (Echinochloa crus-galli [6]) | SETFA damage score, application pre-emergence (Setaria faberi [7]) | AMARE damage score, application pre-emergence (Amaranthus retroflexus [8]) | ABUTH damage score, application pre-emergence (Abutilon theophrasti [9]) | ZEAMX damage score, application pre-emergence (zea mays [10]) | ALOMY damage score, application pre-emergence (Alopecurus myosuroides [11]) | ECHCG damage score, application pre-emergence (Echinochloa crus-galli [12])
1 | CC1=C(Cl)C(=O)N(c2ncc(F)cc2F)C1O (stereo not drawn) [AF62] | 1 | 0 | 2 | 0 | 1 | 1 | 0 | 2 | 2 | 0 | 0 | 0
2 | CC1=C(Cl)C(=O)N(c2ncc(C(F)(F)F)cc2F)C1O (stereo not drawn) [AF63] | 1 | 0 | 1 | 0 | 1 | 1 | 0 | 0 | 0 | 0 | 0 | 0
3 | CC1=C(Cl)C(=O)N(c2cc(OC(F)(F)F)ccn2)C1O (stereo not drawn) [AF74] | 5 | 5 | 5 | 2 | 4 | 5 | 4 | 5 | 2 | 2 | 3 | 4
4 | CCCC1=C(Cl)C(=O)N(c2cc(C(F)(F)F)ccn2)C1O (stereo not drawn) [AF81] | 4 | 5 | 5 | 2 | 4 | 5 | 2 | 5 | 4 | 2 | 3 | 5
5 | CC(C)(C)C1=C(Cl)C(=O)N(c2cc(C(F)(F)F)ccn2)C1O (stereo not drawn) [AF82] | 0 | 0 | 0 | 2 | 0 | 3 | 0 | 0 | 0 | 1 | 0 | 0
6 | CC(C)C1=C(Cl)C(=O)N(c2cc(C(F)(F)F)ccn2)C1O (stereo not drawn) [AF83] | 0 | 0 | 2 | 0 | 3 | 2 | 1 | 2 | 0 | 1 | 2 | 2
7 | CCC1=C(Cl)C(=O)N(c2cc(C(F)(F)F)ccn2)C1O (stereo not drawn) [AF84, 4-chloro-3-ethyl-2-hydroxy-1-[4-(trifluoromethyl)-2-pyridyl]-2H-pyrrol-5-one] | 5 | 4 | 5 | 3 | 5 | 5 | 2 | 5 | 2 | 0 | 3 | 5
8 | CC1=C(Cl)C(=O)N(c2cc(C(F)(F)F)c(-c3ccc(Cl)cc3)cn2)C1O (stereo not drawn) [AF87] | 5 | 5 | 4 | 3 | 4 | 4 | 3 | 2 | 0 | 0 | 2 | 0
9 | CC1=C(Cl)C(=O)N(c2cc(C(F)(F)F)c(C(=O)NC(C)(C)C)cn2)C1O (stereo not drawn) [AF88] | 5 | 5 | 5 | 5 | 5 | 5 | 5 | 5 | 5 | 4 | 4 | 5
10 | CC1=C(Cl)C(=O)N(c2cc3c(cn2)CCCC3)C1O (stereo not drawn) [AF89] | 5 | 5 | 5 | 1 | 3 | 5 | 5 | 2 | 1 | 1 | 2 | 3
11 | CC1=C(Cl)C(=O)N(c2cc(C(F)(F)F)c(C(=O)OC(C)C)cn2)C1O (stereo not drawn) [AF92] | 5 | 5 | 5 | 4 | 4 | 5 | 5 | 4 | 2 | 3 | 4 | 3
12 | CC1=C(Cl)C(=O)N(c2cc(C(F)(F)F)c(-c3ccc(C#N)cc3)cn2)C1O (stereo not drawn) [AF93] | 4 | 5 | 4 | 2 | 4 | 4 | 0 | 2 | 1 | 0 | 0 | 0
13 | CCC(=O)OC1C(C)=C(Cl)C(=O)N1c1cc(C(F)(F)F)c(-c2cccc(C#N)c2)cn1 (stereo not drawn) [AF94] | 3 | 4 | 3 | 1 | 3 | 3 | 0 | 3 | 0 | 0 | 0 | 0
14 | CC1=C(Cl)C(=O)N(c2cc(C(F)(F)F)c(-c3cccc(C#N)c3)cn2)C1O (stereo not drawn) [AF95] | 4 | 5 | 3 | 2 | 2 | 2 | 0 | 0 | 0 | 0 | 0 | 0
15 | CCN(CC)C(=O)c1cnc(N2C(=O)C(Cl)=C(C)C2O)cc1C(F)(F)F (stereo not drawn) [AF96] | 0 | 0 | 0 | 1 | 0 | 0 | 0 | 0 | 0 | 0 | 0 | 0
16 | CC1=C(Cl)C(=O)N(c2cc(C(F)(F)Cl)ccn2)C1O (stereo not drawn) [AF98] | 5 | 5 | 5 | 3 | 5 | 5 | 5 | 5 | 1 | 2 | 3 | 5
